{
  "source": "patent US9840478B2",
  "about": "(MERCK SHARP & DOHME CORP., priority 2013, dated 2017)",
  "data": [
    {"system": "HIV-1 (H9IIIB strain)", "assay": "Cell-based HIV infection assay using a reporter (Cell-Based), MT4-GFP cells", "conditions": "Human immunodeficiency virus 1, MT4-GFP cells infected with HIV-1 H9IIIB; 50% normal human serum; mean of at least two independent experiments; read-out: Cell-based IP", "procedure,_shortened": "(§1)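 IC50 from 4-parameter dose-response of % viral growth inhibition, using the 48 h/24 h infected-cell ratio scaled between DMSO and a protease/integrase/NNRTI triple-drug control. Assay used MT4 cells with HIV-LTR-GFP reporter, pre-infected 24 h with HIV-1 H9IIIB, in 50% normal human serum.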", "units": {"IC50": "µM"}, "values": [
      {"compound": "N[C@H](C(=O)Nc1cccc(F)c1CC[C@H]1CNCCN1S(=O)(=O)c1ccccc1)[C@@H](c1ccc(Cl)cc1)c1cncc(C(F)(F)F)c1", "note": "[Example 6, (2S,3S)-2-amino-3-(4-chlorophenyl)-N-(3-fluoro-2-(2-((S)-1-(phenylsulfonyl)piperazin-2-yl)ethyl)phenyl)-3-(5-(trifluoromethyl)pyridine-3-yl)propanamide]", "IC50": 0.0078},
      {"compound": "COC(=O)N[C@H](C(=O)Nc1cccc(F)c1CC[C@H]1CNCCN1S(=O)(=O)c1ccccc1)[C@@H](c1ccc(Cl)cc1)C1CC(C)(C)OC(C)(C)C1", "note": "[Example 77, (βR)-4-chloro-N-(3-fluoro-2-{2-[(2S)-1-(phenylsulfonyl)piperazin-2-yl]ethyl}phenyl)-Nα-(methoxycarbonyl)-β-(2,2,6,6-tetramethyltetrahydro-2H-pyran-4-yl)-L-phenylalaninamide]", "IC50": 0.018},
      {"compound": "COC(=O)N[C@H](C(=O)Nc1cccc(F)c1CC[C@H]1CNCC2(CC2)N1S(=O)(=O)c1ccccc1)[C@@H](c1ccc(Cl)cc1)C1CCOCC1", "note": "[Example 369, ((1R,2S)-1-(4-chlorophenyl)-3-((3-fluoro-2-(2-((S)-4-(phenylsulfonyl)-4,7-diazaspiro[2.5]octan-5-yl)ethyl)phenyl)amino)-3-oxo-1-(tetrahydro-2H-pyran-4-yl)propan-2-yl)carbamate]", "IC50": 0.011},
      {"compound": "O=C(C[C@@H](c1ccc(F)cc1)c1cc(F)cc(F)c1)Nc1cncc(F)c1CC[C@H]1CNCCN1C(=O)N1CCCCC1", "note": "[Example 341, (3S)-3-(3,5-difluorophenyl)-3-(4-fluorophenyl)-N-(5-fluoro-4-{2-[(2S)-1-(piperidin-1-ylcarbonyl)piperazin-2-yl]ethyl}pyridin-3-yl)propanamide]", "IC50": 0.45},
      {"compound": "C[C@H]1CNC[C@H](CCc2c(F)cccc2NC(=O)[C@@H](N)[C@H](c2cccc(F)c2)c2cccc(Cl)c2)N1S(=O)(=O)c1ccccc1", "note": "[Example 154, (βR)-3-chloro-N-(3-fluoro-2-{2-[(2S,6S)-6-methyl-1-(phenylsulfonyl)piperazin-2-yl]ethyl}phenyl)-β-(3-fluorophenyl)-L-phenylalaninamide]", "IC50": 0.065},
      {"compound": "C[C@H]1CNC[C@H](CCc2c(F)cccc2NC(=O)[C@@H](N)[C@@H](c2ccc(F)cc2)c2cc(F)cc(F)c2)N1S(=O)(=O)c1cccc(F)c1", "note": "[Example 106, (βS)-β-(3,5-difluorophenyl)-4-fluoro-N-[3-fluoro-2-(2-{(2S,6S)-1-[(3-fluorophenyl)sulfonyl]-6-methylpiperazin-2-yl}ethyl)phenyl]-L-phenylalaninamide]", "IC50": 0.03},
      {"compound": "COc1ccc(S(=O)(=O)N2[C@@H](CCc3c(F)cncc3NC(=O)[C@@H](N)[C@@H](c3ccc(Cl)cc3)C3CCOCC3)CNC[C@@H]2C)cc1", "note": "[Example 9, (2S,3R)-2-Amino-3-(4-chlorophenyl)-N-(5-fluoro-4-(2-((2S,6S)-1-((4-methoxyphenyl)sulfonyl)-6-methylpiperazin-2-yl)ethyl)pyridin-3-yl)-3-(tetrahydro-2H-pyran-4-yl)propanamide]", "IC50": 0.0071},
      {"compound": "N[C@@H](Cc1ccc(F)cc1)C(=O)Nc1cncc(F)c1CC[C@H]1CNCCN1S(=O)(=O)C1CC1", "note": "[Example 47, N-(4-{2-[(2S)-1-(cyclopropylsulfonyl)piperazin-2-yl]ethyl}-5-fluoropyridin-3-yl)-4-fluoro-L-phenylalaninamide]", "IC50": 1.2},
      {"compound": "COC(=O)N[C@H](C(=O)Nc1cccc(F)c1CC[C@H]1CNCCN1S(C)(=O)=O)[C@@H](c1ccc(Cl)cc1)C1CCOC(C)(C)C1", "note": "(stereo partly drawn) [Example 79, (βR)-4-chloro-β-(2,2-dimethyltetrahydro-2H-pyran-4-yl)-N-(3-fluoro-2-{2-[(2S)-1-(methylsulfonyl)piperazin-2-yl]ethyl}phenyl)-Nα-(methoxycarbonyl)-L-phenylalaninamide]", "IC50": 0.03},
      {"compound": "COc1ccc(S(=O)(=O)N2[C@@H](CCc3c(F)cccc3NC(=O)[C@@H](N)[C@@H](c3ccc(F)cc3)c3cc(F)cc(F)c3)CNC[C@H]2C)cc1", "note": "[Example 16, (βS)-β-(3,5-difluorophenyl)-4-fluoro-N-[3-fluoro-2-(2-{(2S,6R)-1-[(4-methoxyphenyl)sulfonyl]-6-methylpiperazin-2-yl}ethyl)phenyl]-L-phenylalaninamide]", "IC50": 0.0054},
      {"compound": "O=C(C[C@@H](c1ccc(F)cc1)c1cc(F)cc(F)c1)Nc1cncc(F)c1CC[C@H]1CNCCN1S(=O)(=O)c1ccc(OC(F)(F)F)cc1", "note": "[Example 314, (3S)-3-(3,5-difluorophenyl)-3-(4-fluorophenyl)-N-(5-fluoro-4-{2-[(2S)-1-{[4-(trifluoromethoxy)phenyl]sulfonyl}piperazin-2-yl]ethyl}pyridin-3-yl)propanamide]", "IC50": 0.0092},
      {"compound": "C[C@H]1CNC[C@H](CCc2c(F)cncc2NC(=O)[C@@H](N)[C@@H](c2ccc(F)cc2)c2cc(F)cc(F)c2)N1S(=O)(=O)c1ccc(OC(F)(F)F)cc1", "note": "[Example 243, (βS)-β-(3,5-difluorophenyl)-4-fluoro-N-(5-fluoro-4-{2-[(2S,6S)-6-methyl-1-{[4-(trifluoromethoxy)phenyl]sulfonyl}piperazin-2-yl]ethyl}pyridin-3-yl)-L-phenylalaninamide]", "IC50": 0.017},
      {"compound": "O=C(C[C@@H](c1ccc(F)cc1)c1cc(F)cc(F)c1)Nc1cncc(F)c1CC[C@H]1CNCCN1S(=O)(=O)c1ccc(-c2ccccn2)s1", "note": "[Example 311, (3S)-3-(3,5-difluorophenyl)-3-(4-fluorophenyl)-N-[5-fluoro-4-(2-{(2S)-1-[(5-pyridin-2-ylthiophen-2-yl)sulfonyl]piperazin-2-yl}ethyl)pyridin-3-yl]propanamide]", "IC50": 0.02},
      {"compound": "C[C@@H]1C[C@](c2ccc(Cl)cc2)([C@H](N)C(=O)Nc2cccc(F)c2CC[C@H]2CNC[C@@H](C)N2S(=O)(=O)c2ccccc2)C[C@H](C)O1", "note": "[Example 301, (S)-2-amino-2-((2R,4r,6S)-4-(4-chlorophenyl)-2,6-dimethytetrahydro-2H-pyran-4-yl)-N-(3-fluoro-2-(2-((2S,6R)-6-methyl-1-(phenylsulfonyl)piperazin-2-yl)ethyl)phenyl)acetamide]", "IC50": 0.48},
      {"compound": "C[C@H]1CNC[C@H](CCc2c(F)cccc2NC(=O)[C@@H](N)C(c2cccc(F)c2)c2cccc(F)c2)N1S(=O)(=O)C1CC1", "note": "[Example 158, N-(2-{2-[(2S,6S)-1-(cyclopropylsulfonyl)-6-methylpiperazin-2-yl]ethyl}-3-fluorophenyl)-3-fluoro-β-(3-fluorophenyl)-L-phenylalaninamide]", "IC50": 0.075},
      {"compound": "COC(=O)N[C@H](C(=O)Nc1cccc(F)c1CC[C@H]1CNC[C@H](C)N1S(=O)(=O)c1ccccc1)C1(c2ccc(F)c(F)c2)CCOCC1", "note": "[Example 297, methyl {(1S)-1-[4-(3,4-difluorophenyl)tetrahydro-2H-pyran-4-yl]-2-[(3-fluoro-2-{2-[(2S,6S)-6-methyl-1-(phenylsulfonyl)piperazin-2-yl]ethyl}phenyl)amino]-2-oxoethyl}carbamate]", "IC50": 0.016},
      {"compound": "CC(C)[C@H](c1ccc(Cl)cc1)[C@H](N)C(=O)Nc1cccc(F)c1CC[C@H]1CNC[C@H](C)N1S(C)(=O)=O", "note": "[Example 122, (βR)-4-chloro-N-(3-fluoro-2-{2-[(2S,6S)-6-methyl-1-(methylsulfonyl)piperazin-2-yl]ethyl}phenyl)-β-(1-methylethyl)-L-phenylalaninamide]", "IC50": 0.36},
      {"compound": "C[C@H]1CNC[C@H](CCc2c(F)cncc2NC(=O)[C@@H](N)[C@@H](c2ccc(Cl)cc2)C2CCOCC2)N1S(=O)(=O)c1ccccc1", "note": "[Example 277, (βR)-4-chloro-N-(5-fluoro-4-{2-[(2S,6S)-6-methyl-1-(phenylsulfonyl)piperazin-2-yl]ethyl}pyridin-3-yl)-β-(tetrahydro-2H-pyran-4-yl)-L-phenylalaninamide]", "IC50": 0.015},
      {"compound": "C[C@H]1CNC[C@H](CCc2c(F)cncc2NC(=O)[C@@H](N)[C@@H](c2ccc(Cl)cc2)C2CCOCC2)N1S(=O)(=O)c1ccc(Cl)cc1", "note": "[Example 273, (βR)-4-chloro-N-[4-(2-{(2S,6S)-1-[(4-chlorophenyl)sulfonyl]-6-methylpiperazin-2-yl}ethyl)-5-fluoropyridin-3-yl]-β-(tetrahydro-2H-pyran-4-yl)-L-phenylalaninamide]", "IC50": 0.011},
      {"compound": "COC(=O)N[C@H](C(=O)Nc1cccc(F)c1CC[C@H]1CNC[C@H](C)N1S(=O)(=O)c1ccccc1)C1(c2ccc(Cl)cc2)CCOCC1", "note": "[Example 276, methyl {(1S)-1-[4-(4-chlorophenyl)tetrahydro-2H-pyran-4-yl]-2-[(3-fluoro-2-{2-[(2S,6S)-6-methyl-1-(phenylsulfonyl)piperazin-2-yl]ethyl}phenyl)amino]-2-oxoethyl}carbamate]", "IC50": 0.0091}
    ]},
    {"system": "HIV-1 (H9IIIB strain)", "assay": "Cell-based HIV infection assay using a reporter (Cell-Based), MT4-GFP cells", "conditions": "MT4-GFP cells infected with HIV-1 H9IIIB; 50% normal human serum; mean of at least two independent experiments; read-out: Cell-based IP", "procedure,_shortened": "as §1", "units": {"IC50": "µM"}, "values": [
      {"compound": "CC(C)OCC1CNC[C@H](CCc2c(F)cccc2NC(=O)[C@@H](N)[C@@H](c2ccc(F)cc2)c2cc(F)cc(F)c2)N1S(=O)(=O)C1CC1", "note": "(stereo partly drawn) [Example 228, (βS)-N-[2-(2-{(2S)-1-(cyclopropylsulfonyl)-6-[(1-methylethoxy)methyl]piperazin-2-yl}ethyl)-3-fluorophenyl]-β-(3,5-difluorophenyl)-4-fluoro-L-phenylalaninamide]", "IC50": 0.015},
      {"compound": "methyl ((S)-1-((2R,4r,6S)-4- (4-chlorophenyl)-2,6- dimethyltetrahydro-2H- pyran-4-yl)-2-((3-fluoro-2-(2- ((2S,6S)-6-methyl-1- (phenylsulfonyl)piperazin-2- yl)ethyl)phenyl)amino)-2- oxoethyl)carbamate [Example 299]", "IC50": 0.016},
      {"compound": "COCC1CNC[C@H](CCc2c(F)cccc2NC(=O)[C@@H](N)[C@@H](c2ccc(Cl)cc2)C2CCOCC2)N1S(C)(=O)=O", "note": "(stereo partly drawn) [Example 260, (βR)-4-chloro-N-(3-fluoro-2-{2-[(2S)-6-(methoxymethyl)-1-(methylsulfonyl)piperazin-2-yl]ethyl}phenyl)-β-(tetrahydro-2H-pyran-4-yl)-L-phenylalaninamide]", "IC50": 0.14}
    ]}
  ]
}
